The text below walks through data of patent US8470888B2, “Botryllamides and method of inhibiting PGP in a mammal afflicted with cancer” (The United States of America, as represented by the …, priority 2008, dated 2013).

What all share (type): cell-based
One data set deals with Pgp (Homo sapiens (Human), UniProt P08183). Kind of data set: Flow assay, rhodamine 123 efflux in transfected HEK293 cells expressing Pgp. The settings on record: 10 μM compound; 0.5 μg/ml rhodamine 123.
The target of the next data set is ABCG2 (Homo sapiens (Human), UniProt Q9UNQ0). The experiment in a line: Pheophorbide a accumulation assay for ABCG2 inhibitors in NCI-H460/MX20 cells. The note with it: for IC50: 1 μM pheophorbide a, 18 h; for Pheophorbide a max activity, % of FTC response: normalized to 10 μM FTC. Here is the method: Accumulation of pheophorbide a, a fluorescent ABCG2 substrate (Jonker et al., Proc. Natl. Acad. Sci. USA, 99: 15649-54 (2002) and Robey et al., Cancer Res., 64: 1242-6 (2004)), formed the basis of the assay for inhibitors of ABCG2 activity (Henrich et al., J. Biomol. Screen, 11: 176-83 (2006)). Briefly, NCI-H460/MX20 cells are transferred to black wall, clear bottom 384-well polylysine-coated assay plates (Corning, Corning, N.Y.) and allowed to attach for several hours. Pheophorbide a (1 μM final concentration) is added immediately followed by compounds or vehicle (DMSO/PBS) control and incubated an additional 18 h. After removal of medium and washing with PBS containing Ca^2+ and Mg^2+, fluorescence intensity is read on a Tecan Safire fluorescence plate reader in bottom read mode, 395 nm excitation, and 670 nm emission. Each plate has control wells containing 10 μM (final concentration) FTC. Data are normalized to FTC and reported as % of FTC fluorescence.

The target of another data set is MRP1 (Homo sapiens (Human), UniProt P33527). Kind of data set: Flow assay, calcein efflux in transfected HEK293 cells expressing MRP1. The note with it: 10 μM compound; 200 nM calcein AM.

What is called IC50 is the concentration needed to halve the response being measured.

Sequence of Pgp (P08183 whole entry): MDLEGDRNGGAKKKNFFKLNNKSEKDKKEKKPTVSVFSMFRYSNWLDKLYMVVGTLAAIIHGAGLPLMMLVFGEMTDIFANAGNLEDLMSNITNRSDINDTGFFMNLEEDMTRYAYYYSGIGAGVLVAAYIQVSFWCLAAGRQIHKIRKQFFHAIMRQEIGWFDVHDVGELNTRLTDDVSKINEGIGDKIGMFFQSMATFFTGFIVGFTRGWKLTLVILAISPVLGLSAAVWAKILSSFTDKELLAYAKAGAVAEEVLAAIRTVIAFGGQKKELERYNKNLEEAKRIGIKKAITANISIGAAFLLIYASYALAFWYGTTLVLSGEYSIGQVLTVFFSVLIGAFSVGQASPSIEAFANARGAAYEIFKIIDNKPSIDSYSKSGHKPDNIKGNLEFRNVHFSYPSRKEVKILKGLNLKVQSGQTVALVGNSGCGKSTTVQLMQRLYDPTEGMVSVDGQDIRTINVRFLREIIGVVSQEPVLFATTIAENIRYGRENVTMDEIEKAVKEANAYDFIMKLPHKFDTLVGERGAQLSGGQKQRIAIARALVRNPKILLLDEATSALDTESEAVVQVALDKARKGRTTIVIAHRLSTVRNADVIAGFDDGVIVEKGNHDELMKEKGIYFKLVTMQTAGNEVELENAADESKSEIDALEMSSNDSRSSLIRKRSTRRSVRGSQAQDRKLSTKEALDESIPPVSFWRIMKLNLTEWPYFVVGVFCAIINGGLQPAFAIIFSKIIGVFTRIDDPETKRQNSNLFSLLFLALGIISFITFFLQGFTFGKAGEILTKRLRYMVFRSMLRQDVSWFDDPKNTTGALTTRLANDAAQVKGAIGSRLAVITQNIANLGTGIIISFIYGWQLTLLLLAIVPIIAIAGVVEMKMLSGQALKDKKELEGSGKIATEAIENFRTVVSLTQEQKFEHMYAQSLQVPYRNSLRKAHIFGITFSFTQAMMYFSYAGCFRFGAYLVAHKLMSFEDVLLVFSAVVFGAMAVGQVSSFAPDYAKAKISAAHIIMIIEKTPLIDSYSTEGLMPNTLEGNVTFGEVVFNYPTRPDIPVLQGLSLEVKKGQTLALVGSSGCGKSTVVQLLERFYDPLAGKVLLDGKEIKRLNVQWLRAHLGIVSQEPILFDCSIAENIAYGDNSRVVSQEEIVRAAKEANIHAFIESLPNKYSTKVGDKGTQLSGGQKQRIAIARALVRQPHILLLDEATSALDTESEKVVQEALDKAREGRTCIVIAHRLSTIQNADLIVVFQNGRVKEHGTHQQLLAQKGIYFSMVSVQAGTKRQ
Sequence of ABCG2 (Q9UNQ0 whole entry): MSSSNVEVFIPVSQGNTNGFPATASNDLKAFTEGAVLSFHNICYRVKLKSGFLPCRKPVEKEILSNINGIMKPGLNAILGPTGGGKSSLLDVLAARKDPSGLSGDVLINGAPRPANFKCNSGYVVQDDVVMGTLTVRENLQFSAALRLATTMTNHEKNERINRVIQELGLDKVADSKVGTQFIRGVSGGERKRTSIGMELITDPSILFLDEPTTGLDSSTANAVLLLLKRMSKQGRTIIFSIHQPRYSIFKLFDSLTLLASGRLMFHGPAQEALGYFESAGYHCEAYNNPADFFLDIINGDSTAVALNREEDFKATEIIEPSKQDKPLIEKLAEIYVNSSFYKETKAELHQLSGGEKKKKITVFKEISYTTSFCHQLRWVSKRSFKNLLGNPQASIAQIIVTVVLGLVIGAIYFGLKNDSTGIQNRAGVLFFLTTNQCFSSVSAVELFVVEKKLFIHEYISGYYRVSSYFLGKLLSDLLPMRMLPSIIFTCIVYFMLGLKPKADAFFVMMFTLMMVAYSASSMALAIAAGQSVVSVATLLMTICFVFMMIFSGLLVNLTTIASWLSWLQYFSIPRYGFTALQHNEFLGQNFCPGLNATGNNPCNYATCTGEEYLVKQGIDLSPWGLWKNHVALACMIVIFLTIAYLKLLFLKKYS
Sequence of MRP1 (P33527 whole entry): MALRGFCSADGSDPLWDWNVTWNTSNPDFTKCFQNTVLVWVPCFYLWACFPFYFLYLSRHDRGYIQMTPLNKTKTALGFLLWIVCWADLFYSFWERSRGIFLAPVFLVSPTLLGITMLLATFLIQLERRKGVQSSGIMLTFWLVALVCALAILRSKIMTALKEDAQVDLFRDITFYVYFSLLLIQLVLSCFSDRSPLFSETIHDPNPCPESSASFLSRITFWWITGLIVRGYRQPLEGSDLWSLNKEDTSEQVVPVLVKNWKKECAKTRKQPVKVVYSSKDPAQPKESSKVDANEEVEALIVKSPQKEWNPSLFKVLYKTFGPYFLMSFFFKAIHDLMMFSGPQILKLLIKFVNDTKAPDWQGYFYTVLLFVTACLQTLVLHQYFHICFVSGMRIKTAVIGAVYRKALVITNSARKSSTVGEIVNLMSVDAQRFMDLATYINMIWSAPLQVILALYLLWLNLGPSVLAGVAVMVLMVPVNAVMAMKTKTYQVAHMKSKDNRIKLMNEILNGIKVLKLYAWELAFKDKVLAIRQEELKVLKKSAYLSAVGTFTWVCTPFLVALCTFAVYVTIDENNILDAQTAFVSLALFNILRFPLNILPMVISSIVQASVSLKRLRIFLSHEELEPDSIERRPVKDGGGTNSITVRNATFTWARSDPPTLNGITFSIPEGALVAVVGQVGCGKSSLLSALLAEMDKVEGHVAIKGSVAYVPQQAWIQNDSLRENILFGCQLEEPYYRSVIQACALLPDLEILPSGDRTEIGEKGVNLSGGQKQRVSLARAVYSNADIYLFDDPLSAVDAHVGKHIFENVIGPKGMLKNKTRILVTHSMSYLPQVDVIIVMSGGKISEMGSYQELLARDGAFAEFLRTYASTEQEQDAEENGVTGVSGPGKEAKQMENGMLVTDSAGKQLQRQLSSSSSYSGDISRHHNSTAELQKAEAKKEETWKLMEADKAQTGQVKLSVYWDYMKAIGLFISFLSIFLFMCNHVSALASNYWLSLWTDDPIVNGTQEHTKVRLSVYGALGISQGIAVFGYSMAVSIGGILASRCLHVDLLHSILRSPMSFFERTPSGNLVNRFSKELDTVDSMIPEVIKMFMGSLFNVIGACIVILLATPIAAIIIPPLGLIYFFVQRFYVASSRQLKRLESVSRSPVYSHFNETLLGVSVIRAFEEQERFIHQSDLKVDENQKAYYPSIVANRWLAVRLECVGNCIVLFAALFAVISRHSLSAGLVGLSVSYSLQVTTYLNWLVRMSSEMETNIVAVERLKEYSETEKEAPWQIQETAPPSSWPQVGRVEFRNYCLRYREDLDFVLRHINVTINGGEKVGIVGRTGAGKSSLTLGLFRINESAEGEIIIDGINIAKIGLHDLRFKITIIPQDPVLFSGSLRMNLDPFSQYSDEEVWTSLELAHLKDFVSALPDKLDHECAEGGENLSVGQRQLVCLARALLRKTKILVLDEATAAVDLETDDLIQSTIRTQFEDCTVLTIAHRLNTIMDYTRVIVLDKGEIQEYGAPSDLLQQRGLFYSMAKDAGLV

For `CO/C(=C\c1ccc(O)cc1)C(=O)N/C=C/c1cc(Br)c(OC)c(Br)c1` [Botryllamide A, botryllamide A], the “Flow-Pgp, Fold Increase (Pgp inhibition, rhodamine efflux: treated/control ratio)” value on Pgp is recorded as 17.63 fold. This compound showed a concentration for half-maximal inhibition (IC50) at ABCG2 of 33 µM. Also, on ABCG2 (80 μM compound), the “Pheophorbide a max activity, % of FTC response” value (from here on “Pheophorbide a max activity, %”) stood at 89.7%. Moreover, the “Flow-MRP1, Fold Increase (MRP1 inhibition, calcein efflux: treated/control ratio)” value at MRP1 is listed as 4.5 fold.
For `CO/C(=C\c1ccc(O)cc1)C(=O)N/C=C/c1ccc(OC)c(Br)c1` [Botryllamide D, botryllamide D], in that order: 1.49 fold, 16.4 µM, 63.5% and 2.39 fold.
As to `CO/C(=C\c1ccc(O)cc1)C(=O)N/C=C/c1ccc(OC)cc1` [Botryllamide E, botryllamide E], the “Flow-Pgp, Fold Increase (Pgp inhibition, rhodamine efflux: treated/control ratio)” value at Pgp was found to be 0.76 fold. The compound also registered an IC50 at ABCG2 of 23.3 µM. Further, the “Pheophorbide a max activity, %” value at ABCG2 (80 μM compound) is recorded as 68.8%. The “Flow-MRP1, Fold Increase (MRP1 inhibition, calcein efflux: treated/control ratio)” value at MRP1 is given as 1.96 fold.
As to `CO/C(=C\c1ccc(O)cc1)C(=O)N/C=C/c1ccc(O)cc1` [Botryllamide F, botryllamide F], the “Flow-Pgp, Fold Increase (Pgp inhibition, rhodamine efflux: treated/control ratio)” value on Pgp is on record as 0.59 fold. For the same compound, 16.7 µM corresponded to half-maximal inhibition at ABCG2 (IC50). Moreover, the “Pheophorbide a max activity, %” value on ABCG2 (80 μM compound) is 81.0%. Besides, on MRP1, the “Flow-MRP1, Fold Increase (MRP1 inhibition, calcein efflux: treated/control ratio)” value was 3.33 fold.
As for `CO/C(=C\c1ccc(O)cc1)C(=O)N/C=C/c1cc(Br)c(O)c(Br)c1` [Botryllamide G, botryllamide G], on Pgp, the “Flow-Pgp, Fold Increase (Pgp inhibition, rhodamine efflux: treated/control ratio)” value was found to be 0.68 fold. At ABCG2, this compound came in with an IC50 of 6.9 µM. At ABCG2 (40 μM compound), the “Pheophorbide a max activity, %” value was 123.7 (40 μM) %. Besides, on MRP1, the “Flow-MRP1, Fold Increase (MRP1 inhibition, calcein efflux: treated/control ratio)” value is listed as 2.1 fold.
With `CO/C(=C\c1ccc(O)cc1)C(=O)N/C=C/c1ccc(OC)cc1` [Botryllamide I, botryllamide I], the “Flow-Pgp, Fold Increase (Pgp inhibition, rhodamine efflux: treated/control ratio)” value at Pgp is on record as 0.8 fold. The compound also showed an IC50 against ABCG2 of 41.4 µM. For the same compound, on ABCG2 (80 μM compound), the “Pheophorbide a max activity, %” value turned out to be 71.3%. Besides, the “Flow-MRP1, Fold Increase (MRP1 inhibition, calcein efflux: treated/control ratio)” value at MRP1 is 3.14 fold.
As for botryllamide B, at Pgp, the “Flow-Pgp, Fold Increase (Pgp inhibition, rhodamine efflux: treated/control ratio)” value was 1.95 fold. The IC50 against ABCG2 is 11.2 µM. In addition, the “Pheophorbide a max activity, %” value on ABCG2 (40 μM compound) is recorded as 84.3 (40 μM) %. Moreover, the “Flow-MRP1, Fold Increase (MRP1 inhibition, calcein efflux: treated/control ratio)” value at MRP1 is recorded as 3.26 fold.
Take botryllamide J: the “Flow-Pgp, Fold Increase (Pgp inhibition, rhodamine efflux: treated/control ratio)” value on Pgp is 0.58 fold. In addition, half-maximal inhibition against ABCG2 (IC50) required 26.9 µM. Also, the “Pheophorbide a max activity, %” value at ABCG2 (80 μM compound) stood at 70.5%. For the same compound, the “Flow-MRP1, Fold Increase (MRP1 inhibition, calcein efflux: treated/control ratio)” value at MRP1 is listed as 2.54 fold.
